One assay has as its target T1, TvGDHII (Trichoderma virens, UniProt G9N1C2).
T1 construct: gene TRIVIDRAFT_46709; monomer; ~65 kDa deglycosylated; non-covalent FAD
The experiment in a line: spectrophotometric steady-state kinetics, reduction of […],4-benzoquinone ([…] nm). The format is biochemical. Conditions: 0.5 mM 1,4-benzoquinone fixed, pH 6.5, 30 °C.

Another assay addresses T2, RsGDHIII (Rhizoctonia solani, UniProt A0A0B7G104).
T2 construct: gene RSOLAG1IB_10481; monomer; non-covalent FAD
T2 sequence (A0A0B7G104 20-601): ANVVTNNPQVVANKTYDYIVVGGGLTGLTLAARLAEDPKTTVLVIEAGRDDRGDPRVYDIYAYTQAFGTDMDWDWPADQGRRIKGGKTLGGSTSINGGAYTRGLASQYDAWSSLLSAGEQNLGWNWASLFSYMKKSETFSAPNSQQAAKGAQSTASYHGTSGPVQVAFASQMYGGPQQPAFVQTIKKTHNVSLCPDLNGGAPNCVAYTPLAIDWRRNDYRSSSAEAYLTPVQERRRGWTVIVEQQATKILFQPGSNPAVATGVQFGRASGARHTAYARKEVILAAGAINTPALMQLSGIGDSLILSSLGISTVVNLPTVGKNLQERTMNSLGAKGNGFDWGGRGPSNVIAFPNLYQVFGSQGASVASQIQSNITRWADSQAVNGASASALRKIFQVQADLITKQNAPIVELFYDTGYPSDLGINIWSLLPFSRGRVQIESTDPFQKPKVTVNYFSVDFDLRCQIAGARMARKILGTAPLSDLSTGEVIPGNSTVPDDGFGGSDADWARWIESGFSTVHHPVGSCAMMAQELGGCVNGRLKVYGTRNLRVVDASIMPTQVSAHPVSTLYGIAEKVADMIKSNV
Described as above. The assay is classed as biochemical. Conditions: 0.5 mM 1,4-benzoquinone fixed, pH 6.5, 30 °C.

Assay [1] addresses Aureobasidium subglaciale glucose oxidase (AsGOxII) (Aureobasidium subglaciale). The assay is described as follows: SEC-MALS; HPLC-SEC-MALS of the purified, native glycosylated enzyme; Superdex 200 10/300 GL, PBS pH 7.4 with 200 mM NaCl, 0.75 mL/min, 25 °C; 80 μg of protein loaded per run; oligomeric state judged against the mass of the deglycosylated subunit by SDS-PAGE. (In general: SEC sorts molecules by how far they enter the pores of the column.)

T1 sequence (G9N1C2 entry or part of it): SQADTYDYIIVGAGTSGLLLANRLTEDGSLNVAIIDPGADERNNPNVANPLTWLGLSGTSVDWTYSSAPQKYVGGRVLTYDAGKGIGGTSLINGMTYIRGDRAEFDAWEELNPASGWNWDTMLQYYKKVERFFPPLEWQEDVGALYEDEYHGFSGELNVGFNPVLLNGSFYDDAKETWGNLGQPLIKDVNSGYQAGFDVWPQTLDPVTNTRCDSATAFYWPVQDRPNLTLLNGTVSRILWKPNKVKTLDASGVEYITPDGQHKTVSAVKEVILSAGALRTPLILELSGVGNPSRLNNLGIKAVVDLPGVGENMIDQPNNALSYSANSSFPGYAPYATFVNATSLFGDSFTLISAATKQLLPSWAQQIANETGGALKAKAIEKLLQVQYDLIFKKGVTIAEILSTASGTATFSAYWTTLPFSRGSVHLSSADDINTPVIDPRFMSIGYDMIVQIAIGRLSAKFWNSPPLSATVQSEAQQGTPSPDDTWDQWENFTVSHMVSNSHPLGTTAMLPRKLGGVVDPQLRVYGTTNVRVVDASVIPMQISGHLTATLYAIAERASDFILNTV

Regarding `OC[C@H]1OC(O)[C@H](O)[C@@H](O)[C@H]1O` (stereo partly drawn) [D-galactose], the “apparent Km” value on TvGDHII is given as 42.6 ± 2.4 mM.

In the case of `OC[C@H]1O[C@H](O[C@H]2[C@H](O)[C@@H](O)C(O)O[C@@H]2CO)[C@H](O)[C@@H](O)[C@@H]1O` (stereo partly drawn) [maltose], the “apparent Km” value on RsGDHIII amounted to 159.6 ± 9.4 mM. In the case of “Aureobasidium subglaciale glucose oxidase (AsGOxII) (enzyme)”, in assay [1], the stoichiometry N – broadly, a count of units in the complex or per binding partner – was 2.
